Results reported in patent publication US9156906B2, “Glycopeptides and methods of making and using them” (THE REGENTS OF THE UNIVERSITY OF CALIFORNIA, priority 2008, dated 2015).
Where a SMILES comes first, the peptide text is derived from it. Where no end group is shown, it is not given here. The star is where a group is joined. X1 = CC(=O)N[C@@H]1[C@@H](O[C@@H]2O[C@H](CO)[C@H](O)[C@H](O)[C@H]2O)[C@@H](O)[C@@H](CO)O[C@@H]1*; GalNAc = N-acetylgalactosamine (GalNAc, 2-acetamido-2-deoxy-D-galactopyranose); αGalNAc = CC(=O)N[C@@H]1[C@@H](O)[C@@H](O)[C@@H](CO)O[C@@H]1*

Assays:
[1] = system: naïve CD8+ T cells of healthy A2 donors; test: In vitro priming of naive cytotoxic T cells from PBMC of normal A2+ donors, 51Cr release on T2 cells; type: cell-based, human; settings: for number of specific CTL lines out of the 12, Donor 1 / number of specific CTL lines out of the 12, Donor 2 / number of specific CTL lines out of the 12, Donor 3 / number of specific CTL lines out of the 12, Donor 4 / number of specific CTL lines out of the 12, Donor 5 / number of specific CTL lines out of the 12, Donor 6 / number of specific CTL lines out of the 12, Donor 7: net specific lysis ≧20%, day 10, T2 targets 3:1 E/T; for Total number of specific CTL lines: sum over 7 donors;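 as to all read-outs here: CTL lines primed by co-culturing PBMC with autologous antigen-pulsed mature dendritic cells, 12 lines per antigen, lysis net of unpulsed T2 cell background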
Method: Seven A2+ healthy individuals, never exposed to HBV or HIV, between ages 40 and 57, were included in the study. Autologous, antigen-pulsed, mature dendritic cells (DC) were used as antigen presenting cells (APCs) for the in vitro priming. Autologous DC were cultured with granulocyte/macrophage colony stimulating factor (GM-CSF) (kindly provided by Kirin, Japan) and interleukin (IL) 4 (Peprotech, Rocky Hill, N.J.).
DC were previously pulsed for 2 hours with glycopeptides(s) or peptide(s). Each well defined an individual CTL line.
By using the culture conditions and IL2 regimen optimized over several years in our laboratory, the large majority of the PBMC in culture are T cells at day 10. CD8+ T cells represent the majority.
T cell cultures were tested for specificity at day 10 in a ^51Cr release assay. T2 cells (A2) were used as targets at 3:1 E/T ratio. T cell lines primed in vitro with glycopeptides were tested for the ability to recognize T2 cells pulsed with the glycopeptides, or the peptide backbones, or to untreated T2 cells (background control). Peptide-primed T cell lines were also tested for their ability to respond to peptides and cross-react with the corresponding GalNAc-O-S modified sequence.
CTL lines showing a net specific lysis ≧20% were considered specific. Carbohydrate recognition was defined as a specific response to the glycopeptides, after subtracting the background and the specific response to the corresponding peptide backbone.

[2] = system: β-Gal-[1->3]-α-GalNAc-O-specific T cell clones; test: 51Cr release cytotoxicity assay with TF-specific CTL clones on antigen-pulsed EL-4 targets (fine specificity, cross-reactivity); type: cell-based, mouse; settings: clones B1, C3, D4, 5:1 E/T
Method: CTL clones were generated in C57BL/6 mice (H-2^b) immunized with a K^b-restricted designer alanine-rich glycopeptide sequence that contained TF, sequence: • AIIA(β-Gal-[1->3]-α-GalNAc-O-serine)FAAL
TF-specific CTL clones were tested for the capacity to cross-react to a glycopeptide with a completely unrelated sequence but carrying the sugar at the same position (5 within a 9mer). For this analysis, we designed a modified Sendai virus immunodominant epitope NP 324-332 (5N->5S-TF), sequence: • FAPG (β-Gal-[1->3]-α-GalNAc-O-S)YPAL This epitope is an ideal proof concept because when bonded to K^b class I MHC molecules it exposes position 5 as a major TcR contact.
To define the role of the glycosylated amino acid linker for sugar recognition by T cells, the same T cell clones were also tested for cross-reactivity to three alanine-rich glycopeptides with identical sequences as the immunogen: AIIA(β-Gal-[1->3]-α-GalNAc-O-serine)FAAL, but where TF was linked to different amino acid residues.
T cells were studied with a classic ^51Cr release cytotoxicity assay at a 5:1 effector/target (E/T) ratio. The EL-4 thymoma cell line (H-2)^b, class II MHC negative, was used as the target in these experiments. The cytolytic response to EL-4 cells in the absence of glycopeptides (background) was also assayed, and subtracted, to quantify the net specific lysis. […]

C57BL/6 mice = test: Immunization of wild type C57BL/6 mice, generation of cytotoxic T cells; type: in vivo, mouse; settings: wild type C57BL/6 mice (H-2^b)
Method: These studies were performed in vivo by injecting Tn-containing glycopeptides in: 1) wild type mice (C57BL/6, H-2^b); and 2) MUC1/MT double transgenic mice (H-2^b) that develop spontaneous tumors expressing the Tn carbohydrate molecule within 12 weeks of age.

A2 class I MHC molecules = test: A2 binding affinity of glycopeptides; parameters: species or system human
[3] = clear solution with no visible particulates
Source text: Solubility is defined as a clear solution with no visible particulates.

cancer patients = settings: variety of different formulations; cited from earlier work
MUC1/MT transgenic mice = test: Glycopeptide vaccination of tumor bearing MUC1/MT transgenic mice, CTL activity by 51Cr release on EL-4; settings: MUC1/MT mice 14, 18, 24 weeks old; glycopeptide in IFA; EL-4 targets
Method: In these experiments, MUC1/MT mice have been chosen according to age and tumor development.
Seven days after priming, mice were sacrificed. Splenocytes from each experimental group were pooled and stimulated in vitro in the presence of the glycopeptide that was used as immunogen and irradiated B cell blasts as antigen presenting cells (APCs). After 5 days in culture, cells were collected, purified over Ficoll gradient, and T cell blasts were cultured in complete RPMI conditioned with supernatant from ConA-activated splenocytes as an IL2 source. Two days later (day 7 in culture) T cells were tested for CTL activity.
Carbohydrate and peptide specificity were studied in a standard ^51Cr release assay using the lymphoma EL-4 (H-2^b) cell line as target at different effector: target ratios (E/T) in duplicate, with and without antigens. […] Net specific lysis has been calculated by subtracting the cytolytic response to EL-4 cells alone without antigens defined as background. Data were calculated as % cytotoxicity=[(sample-spontaneous release)/(maximum release-spontaneous release)]×100.
Specificity of primary CTL cultures tested in a ^51Cr release assay is shown. […] EL-4 cells plated with T cell blasts in the absence of antigens have been assessed in duplicate at every E/T ratio to determine the extent of non-specific lysis. […]

CC(=O)N[C@H]1[C@@H](OC[C@H](NC(=O)[C@@H]2CCCN2C(=O)[C@H](CC(C)C)NC(=O)[C@@H](N)Cc2ccccc2)C(=O)N[C@@H](CC(=O)O)C(=O)N[C@@H](Cc2ccccc2)C(=O)N[C@@H](Cc2ccccc2)C(=O)N2CCC[C@H]2C(=O)N[C@@H](CO)C(=O)N[C@H](C(=O)O)C(C)C)O[C@H](CO)[C@H](O)[C@@H]1O
number of specific CTL lines out of the 12, Donor 1 [1]: 5 | number of specific CTL lines out of the 12, Donor 2 [1]: 5 | number of specific CTL lines out of the 12, Donor 3 [1]: 1 | number of specific CTL lines out of the 12, Donor 4 [1]: 3 | number of specific CTL lines out of the 12, Donor 5 [1]: 4 | number of specific CTL lines out of the 12, Donor 6 [1]: 2 | number of specific CTL lines out of the 12, Donor 7 [1]: 4 | Total number of specific CTL lines [1]: 24

CC[C@H](C)[C@H](NC(=O)[C@H](C)N)C(=O)N[C@H](C(=O)N[C@@H](C)C(=O)N[C@@H](CO[C@H]1O[C@H](CO)[C@H](O)[C@H](O[C@@H]2O[C@H](CO)[C@H](O)[C@H](O)[C@H]2O)[C@H]1NC(C)=O)C(=O)N[C@@H](Cc1ccccc1)C(=O)N[C@@H](C)C(=O)N[C@@H](C)C(=O)N[C@@H](CC(C)C)C(=O)O)[C@@H](C)CC [AIIA(β-Gal-[1->3]-α-GalNAc-O-serine)FAAL] (H-AIIAS(X1)FAAL-OH; N-terminus and C-terminus assumed)
cytolytic response of TF-specific CTL clones to antigen (51Cr release, net lysis) [2]: high affinity/avidity | cytotoxic T cell response generated by immunization (C57BL/6 mice): generate primary and memory TF-specific cytotoxic T cells in C57BL/6 mice in the absence of Th

CC(=O)N[C@H]1[C@@H](OC[C@H](NC(=O)[C@H](C)NC(=O)[C@H](CC(C)C)NC(=O)[C@H](C)N)C(=O)N[C@@H](C)C(=O)N[C@@H](C)C(=O)N[C@@H](C)C(=O)N[C@@H](C)C(=O)N[C@H](C(=O)O)C(C)C)O[C@H](CO)[C@H](O)[C@@H]1O [ALA(GALNAc-O-S)SAAAAV]
A2 affinity (in words) (A2 class I MHC molecules): affinity slightly higher than the corresponding peptide but still efficiently

CC(=O)N[C@H]1[C@@H](OC[C@H](NC(=O)CNC(=O)[C@H](CC(C)C)NC(=O)[C@H](C)N)C(=O)N[C@H](C(=O)N[C@@H](C)C(=O)N2CCC[C@H]2C(=O)N2CCC[C@H]2C(=O)N[C@H](C(=O)O)C(C)C)[C@@H](C)O)O[C@H](CO)[C@H](O)[C@@H]1O [ALG(Tn-S)TAPPV]
A2 affinity (in words) (A2 class I MHC molecules): very high affinity

CC(=O)N[C@H]1[C@@H](O[C@H](C)[C@H](NC(=O)[C@H](CC(=O)O)NC(=O)[C@@H]2CCCN2C(=O)[C@H](Cc2ccccc2)NC(=O)[C@H](CC(C)C)NC(=O)[C@@H](N)Cc2ccccc2)C(=O)N[C@@H](CCCNC(=N)N)C(=O)N[C@@H](C)C(=O)N[C@H](C(=O)O)C(C)C)O[C@H](CO)[C@H](O)[C@@H]1O [FLFPD(GalNAc-T)RAV] (H-FLFPDT(αGalNAc)RAV-OH; N-terminus and C-terminus assumed)
solubility when diluted in Dimethylsulfoxide (DMSO) [3]: very soluble | A2 affinity (in words) (A2 class I MHC molecules): very high affinity

CC(=O)N[C@H]1[C@@H](O[C@H](C)[C@H](NC(=O)[C@H](CC(=O)O)NC(=O)[C@@H]2CCCN2C(=O)[C@H](Cc2ccccc2)NC(=O)[C@H](CC(C)C)NC(=O)[C@@H](N)Cc2ccccc2)C(=O)N[C@@H](CCCNC(=N)N)C(=O)N[C@@H](Cc2ccc(O)cc2)C(=O)N[C@H](C(=O)O)C(C)C)O[C@H](CO)[C@H](O)[C@@H]1O [FLFPD(Tn-T)RYV] (H-FLFPDT(αGalNAc)RYV-OH; N-terminus and C-terminus assumed)
solubility when diluted in Dimethylsulfoxide (DMSO) [3]: very soluble | A2 affinity (in words) (A2 class I MHC molecules): very high affinity

CC(=O)N[C@H]1[C@@H](O[C@H](C)[C@H](NC(=O)[C@H](CC(=O)O)NC(=O)[C@@H]2CCCN2C(=O)[C@H](CC(C)C)NC(=O)[C@@H](N)Cc2ccccc2)C(=O)N[C@@H](CCCNC(=N)N)C(=O)N[C@@H](Cc2ccccc2)C(=O)N[C@@H](Cc2ccc(O)cc2)C(=O)N[C@H](C(=O)O)C(C)C)O[C@H](CO)[C@H](O)[C@@H]1O [FLPD(GalNAc-T)RFYV] (H-FLPDT(αGalNAc)RFYV-OH; N-terminus and C-terminus assumed)
solubility when diluted in Dimethylsulfoxide (DMSO) [3]: very soluble | A2 affinity (in words) (A2 class I MHC molecules): very high affinity

CC(=O)N[C@H]1[C@@H](OC[C@H](NC(=O)[C@H](CO)NC(=O)[C@H](Cc2ccc(O)cc2)NC(=O)[C@H](CC(C)C)NC(=O)CN)C(=O)N[C@H](C(=O)N[C@H](C(=O)N2CCC[C@H]2C(=O)N[C@H](C(=O)O)C(C)C)C(C)C)[C@@H](C)O)O[C@H](CO)[C@H](O)[C@@H]1O [GLYS(GalNAc-O-S)TVPV]
number of specific CTL lines out of the 12, Donor 1 [1]: 6 | number of specific CTL lines out of the 12, Donor 2 [1]: 2 | number of specific CTL lines out of the 12, Donor 3 [1]: 1 | number of specific CTL lines out of the 12, Donor 4 [1]: 1 | number of specific CTL lines out of the 12, Donor 5 [1]: 4 | number of specific CTL lines out of the 12, Donor 6 [1]: 4 | number of specific CTL lines out of the 12, Donor 7 [1]: 2 | Total number of specific CTL lines [1]: 20

CC(=O)N[C@H]1[C@@H](OC[C@H](NC(=O)[C@@H](NC(=O)[C@H](CC(C)C)NC(=O)[C@@H](N)[C@@H](C)O)[C@@H](C)O)C(=O)N[C@@H](CS)C(=O)N[C@@H](CC(N)=O)C(=O)N[C@H](C(=O)N[C@@H](CO)C(=O)N[C@H](C(=O)O)C(C)C)[C@@H](C)O)O[C@H](CO)[C@H](O)[C@@H]1O [TLT(GalNAc-O-S)CNTSV] (H-TLTS(αGalNAc)CNTSV-OH; N-terminus and C-terminus assumed)
number of specific CTL lines out of the 12, Donor 1 [1]: 7 | number of specific CTL lines out of the 12, Donor 2 [1]: 4 | number of specific CTL lines out of the 12, Donor 3 [1]: 0 | number of specific CTL lines out of the 12, Donor 4 [1]: 1 | number of specific CTL lines out of the 12, Donor 5 [1]: 5 | number of specific CTL lines out of the 12, Donor 6 [1]: 1 | number of specific CTL lines out of the 12, Donor 7 [1]: 5 | Total number of specific CTL lines [1]: 23

CC(=O)N[C@@H]1[C@@H](O)[C@@H](O)[C@@H](CO)O[C@@H]1O [Tn, α-GalNAc]
safety and tolerability in clinical trials (cancer patients): safe and well tolerated

AIIA(GalNAc-O-S)FAAL (AIIAS(GalNAc)FAAL)
CTL activity after vaccination (MUC1/MT transgenic mice): Strong CTL activity

FAPG (β-Gal-[1->3]-α-GalNAc-O-S)YPAL
cytolytic response of TF-specific CTL clones to antigen (51Cr release, net lysis) [2]: good cytolytic activity
